Source: publication PMC9912108, “The actin bundling activity of ITPKA mainly accounts for its migration-promoting effect in lung cancer cells” (Bioscience Reports, 2023)

Tests used:
[1] = target: T1, ITPKA (Ins(1,4,5)P3-kinase-A) (Homo sapiens, UniProt P23677); assay: coupled optical InsP3-kinase assay (pyruvate kinase/lactate dehydrogenase, NADH) with […] recombinant ITPKA; type: biochemical
T1 construct: expressed in bacteria as GFP-His-fusion protein, tags cleaved with TEV protease

[2] = target: F-actin (filamentous actin) (chicken) (UniProt P68139); assay: co-sedimentation; F-actin bundling assay: G-actin in F-actin buffer (20 mM Tris-HCl pH 7.5, 100 mM KCl, 2 mM MgCl2, 1 mM EGTA, 1 mM DTT, 0.5 mM ATP) with or without ITPKA proteins, 20 min at RT, 10,000 g for 20 min at 4°C; about 1 µM F-actin, 0.5 µM ITPKA, 10-fold excess of ITPKA^L34P; supernatant and pellet on Coomassie-stained SDS-PAGE

T1 sequence (P23677 whole entry, the tested form may be a part): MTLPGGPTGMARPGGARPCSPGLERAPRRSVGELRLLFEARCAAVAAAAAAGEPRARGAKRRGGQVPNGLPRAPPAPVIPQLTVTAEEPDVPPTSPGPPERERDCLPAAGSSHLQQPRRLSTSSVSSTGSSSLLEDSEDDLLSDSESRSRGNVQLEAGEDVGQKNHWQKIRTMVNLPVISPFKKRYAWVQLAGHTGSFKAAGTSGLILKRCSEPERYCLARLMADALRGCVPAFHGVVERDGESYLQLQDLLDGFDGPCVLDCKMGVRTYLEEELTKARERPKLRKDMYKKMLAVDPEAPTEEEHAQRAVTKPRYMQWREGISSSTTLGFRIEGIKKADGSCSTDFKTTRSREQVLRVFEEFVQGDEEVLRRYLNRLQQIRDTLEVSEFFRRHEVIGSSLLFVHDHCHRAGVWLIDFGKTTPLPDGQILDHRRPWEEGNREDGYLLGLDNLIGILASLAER
Sequence of Ins(1,4,5)P3-kinase-A (ITPKA), wild type (P23677 whole entry): as the sequence (P23677 whole entry, the tested form may be a part) above

IC50 [1] [nM]	percent of F-actin bundled [2] [%]	Molecule
17		C[C@@H]1CN(Cc2cn[nH]c2-c2ccc(C#N)cc2)CCN1c1ccc(C(F)(F)F)cn1 [GNF362]
	60	Ins(1,4,5)P3-kinase-A (ITPKA), wild type (from UniProt P23677 1-461) (enzyme)
